Results reported in PubChem BioAssay AID1671426.

Target: Proto-oncogene tyrosine-protein kinase Src (Homo sapiens) (UniProt P12931)
Assay: PubChem AID 1671426
Conditions: Z'-LYTE FRET kinase activity, recombinant SRC N1

Sequence of Proto-oncogene tyrosine-protein kinase Src (Homo sapiens) (P12931 whole entry, looked up): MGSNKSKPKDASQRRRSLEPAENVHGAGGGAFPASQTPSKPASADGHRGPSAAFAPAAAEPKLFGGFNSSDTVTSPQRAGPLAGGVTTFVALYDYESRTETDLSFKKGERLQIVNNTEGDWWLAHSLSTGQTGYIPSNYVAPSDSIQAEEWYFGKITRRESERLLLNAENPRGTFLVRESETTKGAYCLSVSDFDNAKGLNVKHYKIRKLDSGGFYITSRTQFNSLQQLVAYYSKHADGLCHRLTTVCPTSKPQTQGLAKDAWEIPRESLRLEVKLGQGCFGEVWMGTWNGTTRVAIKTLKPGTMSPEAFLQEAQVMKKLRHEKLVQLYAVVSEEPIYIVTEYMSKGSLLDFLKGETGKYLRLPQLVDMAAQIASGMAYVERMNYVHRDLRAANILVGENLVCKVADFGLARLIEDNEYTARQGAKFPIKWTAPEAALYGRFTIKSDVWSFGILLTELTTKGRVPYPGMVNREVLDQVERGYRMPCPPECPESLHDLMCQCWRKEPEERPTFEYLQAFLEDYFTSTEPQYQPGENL

## COc1cc2ncnc(Nc3cccc(Cl)c3)c2cc1OC
  IC50: 1.98 µM
